From patent US20220098203A1 (priority 2018, published 2022)

Each compound was assayed against T1, MAT2A homodimer (Homo sapiens, UniProt P31153) (assay: MAT2A biochemical assay (liberated phosphate, PiColorLock Gold)). Conditions: Table 5a; MAT2A biochemical assay; read-out: Enzyme Inhibition.
T1 construct: inferred from the Ni sepharose purification and imidazole elution; made in house; host or cells: SF9 insect cells, recombinant baculovirus (Bac to Bac, pFASTBAC1)
T1 sequence (P31153 whole entry): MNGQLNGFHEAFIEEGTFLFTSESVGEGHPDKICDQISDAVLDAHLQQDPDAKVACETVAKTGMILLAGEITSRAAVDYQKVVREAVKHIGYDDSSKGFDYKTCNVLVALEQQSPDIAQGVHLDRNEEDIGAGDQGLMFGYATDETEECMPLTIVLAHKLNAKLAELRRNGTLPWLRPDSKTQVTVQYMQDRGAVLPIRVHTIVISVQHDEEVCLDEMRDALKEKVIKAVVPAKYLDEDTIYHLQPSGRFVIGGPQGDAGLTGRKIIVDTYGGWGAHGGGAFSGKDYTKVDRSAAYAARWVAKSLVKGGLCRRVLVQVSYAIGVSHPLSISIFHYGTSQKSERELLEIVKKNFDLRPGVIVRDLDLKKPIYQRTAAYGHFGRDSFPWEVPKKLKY
Protocol: Mat2A protein was expressed by recombinant baculovirus in SF9 infected cells using the Bac to Bac system cloned into the pFASTBAC1 vector (Invitrogen, Carlsbad, Calif.). Recombinant MAT2A was isolated from the cell lysate of 150 g of infected cells using HP Ni sepharose column chromatography. Recombinant MAT2A homodimer was eluted with 250 and 500 mM imidazole, and fractions containing MAT2A were identified by sodium dodecyl sulfate polyacrylamide gel electrophoresis and pooled.
Test compound was prepared in 100% dimethyl sulfoxide (DMSO) at 50× the desired final concentration. A 1 μL volume of compound dilution was added to 40 μL of enzyme dilution and the mixture was allowed to equilibrate for 60 minutes at 25° C. The enzymatic assay was initiated by the addition of 10 μL of substrate mix (500 μM ATP, pH 7.0, 400 μM L-methionine in 1× assay buffer), and the mixture was incubated for a further 60 minutes at 25° C. The reaction was halted and the liberated phosphate released by the enzyme in stoichiometric amounts by the production of S-adenosyl methionine (SAM) was measured using the PiColorLock Gold kit (Innova Biosciences, UK). Absolute product amounts were determined by comparison to a standard curve of potassium phosphate buffer, pH 8.0.
For `COc1ccc(N2Cc3cnc(NCC(F)(F)F)nc3N(c3ccc(SC)cc3)C2=O)cc1` [Example 198, 3-(4-methoxyphenyl)-1-(4-(methylthio)phenyl)-7-((2,2,2-trifluoroethyl)amino)-3,4-dihydropyrimido[4,5-d]pyrimidin-2(1H)-one], the IC50 was < 100 nM. Work on `CCC(=O)c1ccc(N2C(=O)N(c3ccc(OC)cc3)Cc3cnc(NCC(F)(F)F)nc32)cc1` [Example 199, 3-(4-methoxyphenyl)-1-(4-propionylphenyl)-7-((2,2,2-trifluoroethyl)amino)-3,4-dihydropyrimido[4,5-d]pyrimidin-2(1H)-one] yielded an IC50 of 100 to 1000 nM. `COc1ccc(N2Cc3cnc(NCC(F)(F)F)nc3N(c3cc4ccccc4s3)C2=O)cc1` [Example 200, 1-(benzo[b]thiophen-2-yl)-3-(4-methoxyphenyl)-7-((2,2,2-trifluoroethyl)amino)-3,4-dihydropyrimido[4,5-d]pyrimidin-2(1H)-one] was tested, and the IC50 was < 100 nM. `COc1ccc(N2Cc3cnc(NCC(F)(F)F)nc3N(c3ccc(N(C)C)cc3)C2=O)cc1` [Example 201, 1-(4-(dimethylamino)phenyl)-3-(4-methoxyphenyl)-7-((2,2,2-trifluoroethyl)amino)-3,4-dihydropyrimido[4,5-d]pyrimidin-2(1H)-one] was tested, and the IC50 was < 100 nM. Work on `COC(=O)c1ccc(N2C(=O)N(c3ccc(OC)cc3)Cc3cnc(NCC(F)(F)F)nc32)cc1` [Example 203, methyl 4-(3-(4-methoxyphenyl)-2-oxo-7-((2,2,2-trifluoroethyl)amino)-3,4-dihydropyrimido[4,5-d]pyrimidin-1(2H)-yl)benzoate] yielded an IC50 of 100 to 1000 nM. With `COc1ccc(N2Cc3cnc(NCC(F)(F)F)nc3N(c3ccc(N)cc3)C2=O)cc1` [Example 204, 1-(4-aminophenyl)-3-(4-methoxyphenyl)-7-((2,2,2-trifluoroethyl)amino)-3,4-dihydropyrimido[4,5-d]pyrimidin-2(1H)-one] the IC50 was 100 to 1000 nM. Compound `COC(=O)Cc1ccc(N2C(=O)N(c3ccc(OC)cc3)Cc3cnc(NCC(F)(F)F)nc32)cc1` [Example 205, methyl 2-(4-(3-(4-methoxyphenyl)-2-oxo-7-((2,2,2-trifluoroethyl)amino)-3,4-dihydropyrimido[4,5-d]pyrimidin-1(2H)-yl)phenyl)acetate] has an IC50 of 1000 to 10000 nM. With `COc1ccc(N2Cc3cnc(NCC(F)(F)F)nc3N(c3ccc(-c4ccsn4)cc3)C2=O)cc1` [Example 207, 1-(4-(isothiazol-3-yl)phenyl)-3-(4-methoxyphenyl)-7-((2,2,2-trifluoroethyl)amino)-3,4-dihydropyrimido[4,5-d]pyrimidin-2(1H)-one] the IC50 was 1000 to 10000 nM. For `COc1ccc(N2Cc3cnc(NCC(F)(F)F)nc3N(c3cccc(OC)c3)C2=O)cc1` [Example 208, 1-(3-methoxyphenyl)-3-(4-methoxyphenyl)-7-((2,2,2-trifluoroethyl)amino)-3,4-dihydropyrimido[4,5-d]pyrimidin-2(1H)-one], the IC50 was 100 to 1000 nM. For `COCc1ccc(N2C(=O)N(c3ccc(OC)cc3)Cc3cnc(NCC(F)(F)F)nc32)cc1` [Example 209, 1-(4-(methoxymethyl)phenyl)-3-(4-methoxyphenyl)-7-((2,2,2-trifluoroethyl)amino)-3,4-dihydropyrimido[4,5-d]pyrimidin-2(1H)-one], the IC50 was 100 to 1000 nM. For `COc1ccc(N2Cc3cnc(NCC(F)(F)F)nc3N(c3ccc(-c4cscn4)cc3)C2=O)cc1` [Example 210, 3-(4-methoxyphenyl)-1-(4-(thiazol-4-yl)phenyl)-7-((2,2,2-trifluoroethyl)amino)-3,4-dihydropyrimido[4,5-d]pyrimidin-2(1H)-one], the IC50 was 100 to 1000 nM. `COc1ccc(N2Cc3cnc(NCC(F)(F)F)nc3N(c3ccc(-c4cn[nH]c4)cc3)C2=O)cc1` [Example 211, 1-(4-(1H-pyrazol-4-yl)phenyl)-3-(4-methoxyphenyl)-7-((2,2,2-trifluoroethyl)amino)-3,4-dihydropyrimido[4,5-d]pyrimidin-2(1H)-one] gave an IC50 of 100 to 1000 nM. `COc1ccc(N2Cc3cnc(NCC(F)(F)F)nc3N(c3ccc(C(C)C)cc3)C2=O)cc1` [Example 212, 1-(4-isopropylphenyl)-3-(4-methoxyphenyl)-7-((2,2,2-trifluoroethyl)amino)-3,4-dihydropyrimido[4,5-d]pyrimidin-2(1H)-one] was tested, and the IC50 was 100 to 1000 nM. In the case of `O=C1N(c2ccc3nccn3c2)Cc2cnc(NCC(F)(F)F)nc2N1c1ccc(C2CC2)cc1` [Example 213, 1-(4-cyclopropylphenyl)-3-(imidazo[1,2-a]pyridin-6-yl)-7-((2,2,2-trifluoroethyl)amino)-3,4-dihydropyrimido[4,5-d]pyrimidin-2(1H)-one], the IC50 is reported as < 100 nM. In the case of `Cn1cc(N2Cc3cnc(NCC(F)(F)F)nc3N(c3ccc(-c4nc[nH]n4)cc3)C2=O)ccc1=O` [Example 221, 1-(4-(1H-1,2,4-triazol-3-yl)phenyl)-3-(1-methyl-6-oxo-1dihydropyridin-3-yl)-7-((2,2,2-trifluoroethyl)amino)-3,4-dihydropyrimido[4,5-d]pyrimidin-2(1H)-one], the IC50 is reported as 100 to 1000 nM. In the case of `O=C1N(c2ccc3nccn3c2)Cc2cnc(NCC(F)(F)F)nc2N1c1ccc(-c2nc[nH]n2)cc1` [Example 222, 1-(4-(1H-1,2,4-triazol-3-yl)phenyl)-3-(imidazo[1,2-a]pyridin-6-yl)-7-((2,2,2-trifluoroethyl)amino)-3,4-dihydropyrimido[4,5-d]pyrimidin-2(1H)-one], the IC50 is reported as < 100 nM. Work on `O=C1N(c2ccnnc2)Cc2cnc(NCC(F)(F)F)nc2N1c1ccc(OC(F)F)cc1` [Example 224, 1-(4-(difluoromethoxy)phenyl)-3-(pyridazin-4-yl)-7-((2,2,2-trifluoroethyl)amino)-3,4-dihydropyrimido[4,5-d]pyrimidin-2(1H)-one] yielded an IC50 of 1000 to 10000 nM. `O=C1N(c2ccc3nccn3c2)Cc2cnc(NCC(F)(F)F)nc2N1c1ccc(OC(F)F)cc1` [Example 225, 1-(4-(difluoromethoxy)phenyl)-3-(imidazo[1,2-a]pyridin-6-yl)-7-((2,2,2-trifluoroethyl)amino)-3,4-dihydropyrimido[4,5-d]pyrimidin-2(1H)-one] was tested, and the IC50 was < 100 nM. `O=C1N(c2ccc3ncccc3c2)Cc2cnc(NCC(F)(F)F)nc2N1c1ccc(C2CC2)cc1` [Example 226, 1-(4-cyclopropylphenyl)-3-(quinolin-6-yl)-7-((2,2,2-trifluoroethyl)amino)-3,4-dihydropyrimido[4,5-d]pyrimidin-2(1H)-one] was tested, and the IC50 was < 100 nM. Compound `O=C1N(c2ccc3ncccc3c2)Cc2cnc(NCC(F)(F)F)nc2N1c1ccc(OC(F)F)cc1` [Example 227, 1-(4-(difluoromethoxy)phenyl)-3-(quinolin-6-yl)-7-((2,2,2-trifluoroethyl)amino)-3,4-dihydropyrimido[4,5-d]pyrimidin-2(1H)-one] has an IC50 of 100 to 1000 nM. With `COc1ccc(N2C(=O)N(c3ccc4nncn4c3)Cc3cnc(NCC(F)(F)F)nc32)cc1` [Example 229, 3-([1,2,4]triazolo[4,3-a]pyridin-6-yl)-1-(4-methoxyphenyl)-7-((2,2,2-trifluoroethyl)amino)-3,4-dihydropyrimido[4,5-d]pyrimidin-2(1H)-one] the IC50 was < 100 nM. In the case of `COc1ccc(N2C(=O)N(c3ccncc3)Cc3cnc(NCC(F)(F)F)nc32)cc1` [Example 230, 1-(4-methoxyphenyl)-3-(pyridin-4-yl)-7-((2,2,2-trifluoroethyl)amino)-3,4-dihydropyrimido[4,5-d]pyrimidin-2(1H)-one], the IC50 is reported as < 100 nM.
